Assay [1] deals with powdery mildew pathogen, Blumeria graminis f. sp. hordei. Briefly: In vivo control of barley powdery mildew on barley seedlings.
The test system of assay [2] is late blight pathogen, Phytophthora infestans. The format is in vivo.
For assay [3], the system named is gray mold pathogen, Bouytis cinerea. The format is in vivo.
The subject of assay [4] is anthracnose pathogen, Colletotrichum orbiculare. The assay is classed as in vivo.
The subject of assay [5] is powdery mildew pathogen, Sphaerotheca fidigenea. As to the kind of experiment: In vivo control of cucumber powdery mildew (natural infestation in greenhouse). The note with it: for Control value (%) The 1st Exp. cucumber powdery mildew: 1st experiment; for Control value (%) The 2nd Exp. cucumber powdery mildew: 2nd experiment.
Method: The culture solution was diluted with distilled water at a ratio of 1:10, 1:25, 1:50, 1:100 and 1:200. Each diluent was mixed with 250 μg/ml of Tween 20, and sprayed to leaves of the 7th leaf stage of cucumbers.
Topseed (Greenbiotech Co., Ltd.) known as a microbial fungicide for controlling powdery mildew was diluted with distilled water at a ratio of 1:10, 1:25, 1:50, 1:100 and 1:200, and each diluent and flusilazole (Dongbu Hannong Chemical Co., Ltd.) as a positive control were sprayed to cucumber plants to prepare a comparative group. The cucumbers treated with Tween 20 solution alone were employed as a control group.
1 week after spraying, each diluent of the culture solution and comparative sample was sprayed to the target cucumbers second time. 1 week after further spraying, effect on controlling powdery mildew was assessed according to the same method as described in Example 3. The cucumbers were allowed to be infested naturally from a resident powdery mildew pathogen, Sphaerotheca fidigenea in a greenhouse.

Read-outs that look alike come from different tables or passages of the source.

In the case of `CCCCNC(=O)n1c(NC(=O)OC)nc2ccccc21` [Benomyl, benomyl], the “Control value (%) Barley powdery mildew” value in assay [1] (1 μg/ml) worked out at 52%; in assay [1] (100 μg/ml), 100%.

In the case of `N#Cc1c(Cl)c(Cl)c(Cl)c(C#N)c1Cl` [Chlrothalonil, chlrothalonil], the “Control value (%) Tomato late blight” value amounted to 89% in assay [2] (50 μg/ml) and 100% in assay [2] (100 μg/ml).

Regarding `CN(C)S(=O)(=O)N(SC(F)(Cl)Cl)c1ccccc1` [Dichlofluanid, dichlofluanid], the entries for the “Control value (%) Tomato gray mold” value in assay [3] (40 μg/ml) and in assay [3] (80 μg/ml) were 86% and 97%, respectively.

As to `N#Cc1sc2c(=O)c3ccccc3c(=O)c=2sc1C#N` [Dithianon, dithianon], the “Control value (%) Cucumber anthracnose” value is reported as 80% in assay [4] (10 μg/ml) and 100% in assay [4] (100 μg/ml).

For the compound `C[Si](Cn1cncn1)(c1ccc(F)cc1)c1ccc(F)cc1` [Flusilazole, flusilazole], in assay [5] (10 μg/ml), the “Control value (%) The 1st Exp. cucumber powdery mildew” value is on record as 97% and the “Control value (%) The 2nd Exp. cucumber powdery mildew” value was found to be 97%. In assay [5] (30 μg/ml), the “Control value (%) The 1st Exp. cucumber powdery mildew” value is 99% and the “Control value (%) The 2nd Exp. cucumber powdery mildew” value is 99%.

Values taken from patent US8202514B2, “Bacillus subtilis strain having antagonistic activity for controlling plant diseases” (Korea Research Institute of Chemical Technology, priority 2004, dated 2012).
